A short description of data set [1]: Radical scavenging effect (DPPH method). The conditions noted are these: for IC50: DPPH, absorption at 517 nm; for radical scavenging effect (in words): comment on Table 2, DPPH, 1 hour and 24 hours. As for the experimental part:
Measurement was made using the 1,1-diphenyl-2-picrylhydrazyl (DPPH) method [Blois, M. S. Nature, 1958, 181, 1190]. DPPH is a relatively stable radical with the maximum absorption at 517 nm. The absorption at this wavelength disappears upon removal of the radical. DPPH was purchased from Sigma Co. and dissolved in methanol to make the concentration of 0.5 mM.
First, 100 μl of each solution (10^−l to 10^−6 M) of the individual compounds prepared in examples 1 to 4 were placed in each well of a 96-well plate. After adding 100 μl of DPPH solution and standing the reaction mixture at the room temperature, the absorption at 517 nm was measured for each well using a micro plate reader (BioTeck EL-340). A blank solution was prepared to contain 100 μl of methanol instead of the above compounds. The concentration of the individual compounds was denoted by IC50 at the time when the absorption of the test sample becomes a half of that of the blank solution. The absorption was measured at 1 hour and at 24 hours after treatment.

Data set [2] concerns the target Tyrosinase extracted from mushrooms. As to the kind of experiment: Inhibitory activity against tyrosinase. Format: biochemical. The conditions noted are these: L-tyrosine substrate, DOPA cofactor, pH 6.8, 37° C., 10 minutes, absorbance at 475 nm. As for the experimental part: Tyrosinase extracted from mushrooms was purchases from Sigma Co. First, L-tyrosine as a substrate was dissolved in a 0.05M phosphate buffer solution (pH 6.8) to have a concentration of 1.5 mM. 0.01 ml of this solution was added to a 0.3 ml spectrophotometer cuvette, followed by 0.01 ml of 0.06 mM dihydroxyphenylalamine (DOPA) as a cofactor. To this solution were added compounds of Formulas (II) and (III) and the phosphate buffer solution to have the total volume of 0.1 ml. […] Meanwhile, a blank was prepared by adding only 0.1 ml of the phosphate buffer solution. The reaction was performed at 37° C. for 10 minutes. The absorbance was measured at 475 nm with a spectrophotometer (Beckman DU-7500) to determine the inhibitory rate against tyrosinase. IC50 value was determined as the concentration of the inhibitor whose inhibitory rate against the enzyme amounts to 50%. Inhibitory Rate(%)=[(A−B)/A]×100 wherein A is the absorbance at 475 nm in a solution containing no inhibitor, and B is the absorbance at 475 nm in a solution containing an inhibitor.

The conditions of data set [3]: female, naked mouse, 24 h, 5 % (w/v), pH 7.4. How it is done:
More specifically, a dorsal skin of 8-weeks aged female mouse (naked mouse) was cut off and then 5% (w/v) solution of the test sample was applied in an amount of 50 μl to the skin having a size of 1.7 cm^2. Using the apparatus for measuring transdermal absorption test (Franz cell), after 24 hours, the absorbed material was extracted from 7 ml of the receptor solution [50 mM PBS buffer solution (pH=7.4) containing 2% Vol PO20 polyethylene oleyl ether (HLB=16)] and then quantitatively analyzed by HPLC.

[4] abbreviates: 24 hours after treatment, read-out: Radical Scavenging Effect IC50 After 24 hrs.
[5] abbreviates: read-out: Radical Scavenging Effect IC50 After 1 hour, 1 hour after treatment.

Where two headings read alike, the source gives them in different places.

By IC50 is commonly meant the concentration that inhibits the measured activity by half. With `CCOC1=C(O)C(=O)O[C@@H]1[C@@H](O)CO` [3-O-Ethyl-ascorbic acid, reference compound], the IC50 in data set [1] (setting [4]), in data set [1] (setting [5]) and in data set [2] was 9.8 mM in each case.
Take 2-O-PEG350-Ascorbic Acid: the IC50 came out at 5.9 mM in data set [1] (setting [4]), 7.9 mM in data set [1] (setting [5]) and 1.97 mM in data set [2]. The “radical scavenging effect (in words)” value in data set [1] is “potent radical scavenging effect in a short time”.
`O=C1O[C@H]([C@@H](O)CO)C(O)=C1O` [Ascorbic acid]: the half-maximal inhibitory concentration (IC50) was 3.4 mM in data set [1] (setting [4]), 3.4 mM in data set [1] (setting [5]) and 0.47 mM in data set [2]. Further, the “Absorption Rate (%)” value in data set [3] turned out to be 1.2%. For the same molecule, the “Total Transdermal Absorption Amount” value in data set [3] amounted to 0.03 mg.
Consider 2-O-PEG550-Ascorbic Acid, for which the IC50 in data set [1] (setting [4]) came out at 4.2 mM; in data set [1] (setting [5]) it was 7.9 mM; in data set [2], 7.06 mM. The “radical scavenging effect (in words)” value in data set [1] is listed as “potent radical scavenging effect in a short time”.
As to 3-O-PEG550-ascorbic acid, in data set [1], the “radical scavenging effect (in words)” value is “an increase in the radical scavenging effect with an elapse of time”. In addition, in data set [2], the IC50 amounted to 7.06 mM.
As for 3-O-PEG350-Ascorbic Acid, the IC50 in data set [1] (setting [4]) came out at 5.9 mM; in data set [1] (setting [5]) it was 78.7 mM; in data set [2], 9.8 mM. Further, in data set [1], the “radical scavenging effect (in words)” value was “an increase in the radical scavenging effect with an elapse of time”.

(Values after patent US6444144B1, “Polyethoxylated ascorbic acid derivatives as a novel antioxidant and process for preparing thereof” (LG Chemical Ltd., priority 1998, dated 2002).)
